Reference: patent publication US20100267774A1, “P38 MAP KINASE INHIBITORS” (CHROMA THERAPEUTICS LTD., priority 2007, published 2010)
Where two headings read alike, the source gives them in different places.

Key:
p38 MAP Kinase a = biological target: T1, p38 MAP Kinase a (Homo sapiens, UniProt Q16539); assay: p38 MAP Kinase activity, radiometric filter-binding assay (Upstate); assay type: biochemical
T1 construct: purchased Upstate (Dundee UK)

[1] = test system: phosphorylation of MAPKAP-2 in U937 cells; assay: Cellular assay for the phosphorylation of MAPKAP-2 by p38 in U937 cells; assay type: cell-based; conditions: Homo sapiens, U-937; macrophage cell line U937; anisomycin 10 μM; read-out: Inhibition of phosphorylation of MAPKAP-2 in U937 cells (IC50)
Protocol: U937 or HUT78 cells were plated in RPMI 1640, and were incubated at 37° C., 5% CO2 for 18 hours. 10 mM stocks of compounds were diluted media/0.1% DMSO to give a log or semi-log dilution series. The wells for ‘no treatment’ and ‘anisomycin’ were treated with 0.1% DMSO only. The cells were incubated at 37° C., 5% CO2 for a further 4 hours. Anisomycin was added to all wells except ‘no treatment’ at a final concentration of 10 μM. The cells were incubated at 37° C., 5% CO2 for 30 minutes before harvest. Plates were stood on ice whilst harvesting, and all the following steps were carried out at 4° C. The cells were pelleted at 1000 rpm for 10 minutes at 4° C., the media aspirated, and the pellet washed with cold PBS. The pellets were lysed in 120 μl of SDS lysis buffer (62.5 mM Tris, pH 6.8, 2% SDS, 10% glycerol, 50 mM DTT, with protease inhibitors and phosphatase inhibitors added according to the manufacturers' recommendations). […]
In cells, p38 activity leads to the phosphorylation of the protein MAPKAP-2 and thus one method to assess the inhibition of p38 inside cells is to look at the decrease in the levels of phosphorylated MAPKAP-2. Table 1 lists the IC50s as measured by the level of MAPKAP-2 phosphorylation in a macrophage cell line (U937) and non-macrophage cell line (HUT78). […]

[2] = test system: phosphorylation of MAPKAP-2 in HUT 78 cells; assay: Cellular assay for the phosphorylation of MAPKAP-2 by p38 in HUT 78 cells; assay type: cell-based; conditions: for IC50: Homo sapiens, HuT78, non-macrophage cell line HUT 78, anisomycin 10 μM, read-out: Inhibition of phosphorylation of MAPKAP-2 in HUT 78 cells (IC50); for Ratio IC50s in HUT 78 to U937 cells: macrophage selectivity
Protocol: U937 or HUT78 cells were plated in RPMI 1640, and were incubated at 37° C., 5% CO2 for 18 hours. 10 mM stocks of compounds were diluted media/0.1% DMSO to give a log or semi-log dilution series. The wells for ‘no treatment’ and ‘anisomycin’ were treated with 0.1% DMSO only. The cells were incubated at 37° C., 5% CO2 for a further 4 hours. Anisomycin was added to all wells except ‘no treatment’ at a final concentration of 10 μM. The cells were incubated at 37° C., 5% CO2 for 30 minutes before harvest. Plates were stood on ice whilst harvesting, and all the following steps were carried out at 4° C. The cells were pelleted at 1000 rpm for 10 minutes at 4° C., the media aspirated, and the pellet washed with cold PBS. The pellets were lysed in 120 μl of SDS lysis buffer (62.5 mM Tris, pH 6.8, 2% SDS, 10% glycerol, 50 mM DTT, with protease inhibitors and phosphatase inhibitors added according to the manufacturers' recommendations). After 30 minutes on ice, the samples were sonicated for 5 seconds before centrifugation at 13,000 rpm 4° C. for 10 minutes to remove cell debris. 10 μl of the resulting gel samples were loaded per lane on NOVEX 4-12% Bis-Tris MOPS gels. Membranes from western transfer of gels were blotted with anti-phospho MAPKAP-2, anti-phospho HSP27 and anti-GAPDH according to the manufacturers' instructions. Signal was visualised using HRP-linked anti-rabbit or anti-mouse antibodies, ECL reagent and ECL film. IC50 values for the various compounds were visualised from the resulting photographic images, using both band-shift and signal intensity.
In cells, p38 activity leads to the phosphorylation of the protein MAPKAP-2 and thus one method to assess the inhibition of p38 inside cells is to look at the decrease in the levels of phosphorylated MAPKAP-2. Table 1 lists the IC50s as measured by the level of MAPKAP-2 phosphorylation in a macrophage cell line (U937) and non-macrophage cell line (HUT78). […] In contrast, example 33 that has an esterase motif that would be expected to confer macrophage selectivity, has an activity in the macrophage cell line (U937) which is 100 fold greater than in the non-macrophage cell line (HUT 78).

THP-1 TNFα release = assay: LPS-stimulation of THP-1 cells, TNF-α release by ELISA; assay type: cell-based; conditions: Homo sapiens, THP-1, 6 h; read-out: Inhibitor activity versus THP-1 TNFα release
Protocol: THP-1 cells were plated in 100 μl at a density of 4×10^4 cells/well in V-bottomed 96 well tissue culture treated plates and incubated at 37° C. in 5% CO2 for 16 hrs. 2 hrs after the addition of the inhibitor in 100 μl of tissue culture media, the cells were stimulated with LPS (E coli strain 005:B5, Sigma) at a final concentration of 1 μg/ml and incubated at 37° C. in 5% CO2 for 6 hrs. TNF-α levels were measured from cell-free supernatants by sandwich ELISA (R&D Systems #QTA00B).

[3] = compound as such (Example 33: Ester), read-out: Inhibition of P38α (IC50 nM)
[4] = IC50 range, read-out: Inhibitor activity versus p38 MAPKa

T1 sequence (Q16539 whole entry): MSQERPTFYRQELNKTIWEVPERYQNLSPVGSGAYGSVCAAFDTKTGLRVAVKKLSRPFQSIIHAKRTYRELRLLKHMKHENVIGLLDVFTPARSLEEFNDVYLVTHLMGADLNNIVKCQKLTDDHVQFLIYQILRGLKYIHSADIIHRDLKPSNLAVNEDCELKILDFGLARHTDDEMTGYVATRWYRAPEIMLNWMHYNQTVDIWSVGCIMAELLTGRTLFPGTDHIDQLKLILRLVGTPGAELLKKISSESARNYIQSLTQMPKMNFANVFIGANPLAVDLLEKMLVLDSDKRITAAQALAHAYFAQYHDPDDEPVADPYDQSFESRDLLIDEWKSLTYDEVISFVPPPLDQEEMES

| SMILES | IC50 (p38 MAP Kinase a; [3]) | IC50 (p38 MAP Kinase a; Acid (carboxylic acid of the ester), read-out: Inhibition of P38α (IC50 nM)) | IC50 (p38 MAP Kinase a; [4]) | IC50 (THP-1 TNFα release) | IC50 [1] | IC50 [2] | Ratio IC50s in HUT 78 to U937 cells ([2]; MAPKAP-2 phosphorylation) | activity in the macrophage cell line (U937) greater than in the non-macrophage cell line (HUT 78) ([2]; MAPKAP-2 phosphorylation) |
| --- | --- | --- | --- | --- | --- | --- | --- | --- |
| Nc1c(C(=O)c2ccc(F)cc2F)ccc(=O)n1-c1c(F)cccc1F [Compound I, reference compound] | 47 nM | – | – | – | 9 nM | 10 nM | 1.1 | – |
| CC(C)C[C@H](NCCc1cc(F)c(-n2c(N)c(C(=O)c3ccc(F)cc3F)ccc2=O)c(F)c1)C(=O)OC1CCCC1 [Example 33, cyclopentyl N-(2-{4-[6-amino-5-(2,4-difluorobenzoyl)-2-oxopyridin-1(2H)-yl]-3,5-difluorophenyl}ethyl)-L-leucinate] | 100 nM | 0.5 nM | 100 to 1000 nM | < 100 nM | 0.7 nM | 73 nM | 112 | 100 fold |
| Nc1c(C(=O)c2ccc(F)cc2F)ccc(=O)n1-c1c(F)cc(CCN[C@H](C(=O)OC2CCCC2)c2ccc(O)cc2)cc1F [Example 44, Cyclopentyl (2S)-{[2-(4-{6-amino-5-[(2,4-difluorophenyl)carbonyl]-2-oxopyridin-1(2H)-yl}-3,5-difluorophenyl)ethyl]amino}(4-hydroxyphenyl)ethanoate] | – | – | < 100 nM | < 100 nM | – | – | – | – |
| C[C@@H](O)[C@H](NCCc1cc(F)c(-n2c(N)c(C(=O)c3ccc(F)cc3F)ccc2=O)c(F)c1)C(=O)OC1CCCC1 [Example 45, Cyclopentyl N-[2-(4-{6-amino-5-[(2,4-difluorophenyl)carbonyl]-2-oxopyridin-1(2H)-yl}-3,5-difluorophenyl)ethyl]-L-threoninate] | – | – | < 100 nM | < 100 nM | – | – | – | – |

Second part, led by results:

| IC50 (p38 MAP Kinase a; [3]) | IC50 (p38 MAP Kinase a; Acid (carboxylic acid of the ester), read-out: Inhibition of P38α (IC50 nM)) | IC50 (p38 MAP Kinase a; [4]) | IC50 (THP-1 TNFα release) | SMILES | IC50 [1] | IC50 [2] | Ratio IC50s in HUT 78 to U937 cells ([2]; MAPKAP-2 phosphorylation) | activity in the macrophage cell line (U937) greater than in the non-macrophage cell line (HUT 78) ([2]; MAPKAP-2 phosphorylation) |
| --- | --- | --- | --- | --- | --- | --- | --- | --- |
| – | – | < 100 nM | < 100 nM | COc1ccc([C@H](NCCc2cc(F)c(-n3c(N)c(C(=O)c4ccc(F)cc4F)ccc3=O)c(F)c2)C(=O)OC2CCCC2)cc1 [Example 46, Cyclopentyl (2S)-{[2-(4-{6-amino-5-[(2,4-difluorophenyl)carbonyl]-2-oxopyridin-1(2H)-yl}-3,5-difluorophenyl)ethyl]amino}(4-methoxyphenyl)ethanoate] | – | – | – | – |
| – | – | 100 to 1000 nM | < 100 nM | CC(C)C[C@H](NCCc1ccc(-n2c(N)c(C(=O)c3ccc(F)cc3F)ccc2=O)s1)C(=O)OC1CCCC1 [Example 49, Cyclopentyl N-(2-{5-[6-amino-5-(2,4-difluorobenzoyl)-2-oxopyridin-1(2H)-yl]-2-thienyl}ethyl)-L-leucinate] | – | – | – | – |
